Reference: paper PMC10531093, “First-Generation Synthetic Cathinones Produce Arrhythmia in Zebrafish Eleutheroembryos: A New Approach Methodology for New Psychoactive Substances Cardiotoxicity Evaluation” (International Journal of Molecular Sciences, 2023)
Like-named read-outs stand apart in the source and are kept apart here.

Assays:
Assay type in all cases: in vivo, Danio rerio
[1] = Twenty-four-hour acute toxicity test (lethality and abnormalities, 4 to 5 dpf); parameters: Embryos with spasms: dose or concentration left out as unconfirmed; details: zebrafish (Danio rerio), in vivo, other: immersion in test solution; 24 h exposure, 4 to 5 dpf, TAPS buffer pH 8.6; read-out: LC50 (CI95)
Method: (§1) Experiments were conducted to assess lethality after 24 h exposure and quantify drug-induced effects on heart rate after 2 h exposure. Experiments were performed on day 4 of zebrafish development (4 dpf). On the day of the experiment, eleutheroembryos (hereafter embryos) were distributed into a 6-well plate (Thermo-Fisher Scientific, Madrid, Spain) by adding 12 embryos into each well with 5 mL of test solution. Embryos were exposed by immersion at 20 min intervals so that they could be mounted individually by ensuring equal exposure times in all groups. Each drug was tested at different concentrations (ranging from 1 to 1000 µM) in parallel with a control group (Goods buffer TAPS alone). The concentration range used was based on previous experiments with MDMA [58].
(§2) Embryos at 4 dpf were distributed to 6-well plates, and 10 embryos were placed into each well with 5 mL of drug test solution. Plates were incubated at 26 ± 1 °C under a 14:10 light:dark cycle for 24 h. Following 24 h exposure, endpoints used for assessing lethality (coagulation or lack of heartbeat) and morphological/functional abnormalities were recorded for each treatment group. Each drug was tested at different concentrations, and at least three independent experiments were performed.
(§3) Concentration–response curves were derived from 2 h exposures and the 24 h acute toxicity test as effective concentrations 50 (EC50) and lethal concentrations 50 (LC50), respectively. Concentration–response curves were obtained with a sigmoidal concentration–response equation (Hill equation) using the package drc in R software (v.R-3.6.1).

zebrafish embryos [2] = assay: as above; parameters: Embryos with spasms: dose or concentration left out as unconfirmed; details: 24 h exposure between 4 and 5 dpf; for Drug-induced abnormalities: all tested concentrations
Method: as §1, §2, §3

zebrafish embryos [3] = assay: Chamber-specific heart rate (atrium, ventricle) after 2 h exposure, video recording; details: for EC50: Danio rerio, 4 dpf; for Lowest concentration inducing ventricular bradycardia (LOAEC): significant decrease in ventricular heart rate
Method: as §1
(§4) To avoid the movement of zebrafish embryos during recording, embryos were anesthetized by adding tricaine to exposure medium (0.08 mg/mL) and mounted in 3% methylcellulose (without tricaine) on double depression slides (Paul Marienfeld GmbH & Co. KG, Lauda-Königshofen, Germany) after drug exposure time. […] The slide was then transferred to an inverted light microscope (Nikon eclipse TS100, at 400×/N.A. 0.55, Nikon Instruments Inc., Amsterdam, The Netherlands) fitted with a high-speed video camera (Exilim, CASIO, Shibuya City, Japan). Sequential images of the heart (240 frames per second (fps)) were obtained with the embryo positioned on its side from the lateral position and with a duration of 10 s. Embryos were recorded one at a time, and all experiments were consistently conducted at the same time of day, controlling room temperature variation throughout video recordings.
To quantify atrial and ventricular heart rates in zebrafish, video recordings were analyzed with ImageJ v.1.53t. A plot of dynamic pixels was obtained by selecting an area of the heart ventricle or atrium with a high deviation of pixel intensity by means of the z-projection function (see Figure S4 for representative selection of heart ventricle and atrium area). The frequency as frames/beat was obtained by analyzing the waveform of dynamic pixels by the Fast Fourier Transform algorithm (FFT) using the “spectrum” function in R. Then, the resulting periodogram provides frequency information in cycles per frame, so to calculate the heart rate frequency (beats/min, bpm), the frequency values were multiplied by the frame rate (240 fps) to convert cycles per frame to cycles per second (Hz) and then multiplied by 60 to convert from Hz to bpm.
as §3
(§5) Statistical analyses were conducted using GraphPad Prism 9 software. For all endpoints reported as means of mean values, data were considered to have a normal distribution according to the central limit theorem (by which means of random samples from any distribution will themselves have a normal distribution). Statistical comparison was performed by two-way ANOVA, followed by Tukey’s test, which was conducted to assess the effect of concentration and chamber (atrium–ventricle) on heart frequency or AI. Fisher’s Exact test was used for the statistical analysis of the proportion of embryos showing AV block and ventricular fibrillation. Students t-test was used to analyze the ventricular beat rate of zebrafish embryos exposed to the Cm.

zebrafish embryos [4] = assay: AV block 2:1 and ventricular fibrillation after 2 h exposure
Method: as §1, §4, §5

zebrafish embryos [5] = assay: Arrhythmicity index (AI, heart rate variability) after 2 h exposure; details: 500 µM
Method: as §1
To avoid the movement of zebrafish embryos during recording, embryos were anesthetized by adding tricaine to exposure medium (0.08 mg/mL) and mounted in 3% methylcellulose (without tricaine) on double depression slides (Paul Marienfeld GmbH & Co. KG, Lauda-Königshofen, Germany) after drug exposure time. […] Embryos were recorded one at a time, and all experiments were consistently conducted at the same time of day, controlling room temperature variation throughout video recordings.
Heartbeat variability was determined by analysis of the interbeat intervals (heart period) (see Figure 7), similar to the analysis described in [61]. […]

zebrafish embryos [6] = assay: Tachycardic effects: beat rate after 10 min exposure at 10 µM, and ventricular beat rate at Cm after 2 h
[7] = atrial bradycardia, read-out: EC50 (CI95) ATRIUM heart rate
[8] = ventricular bradycardia, read-out: EC50 (CI95) VENTRICLE heart rate

Compound	LC50 at 24 h [1] [µM]	Drug-induced abnormalities (zebrafish embryos [2])	EC50 (zebrafish embryos [3]; [7]) [µM]	EC50 (zebrafish embryos [3]; [8]) [µM]	Lowest concentration inducing ventricular bradycardia (LOAEC) (zebrafish embryos [3]) [µM]	Lowest concentration provoking AV block (zebrafish embryos [4]) [µM]	Embryos with ventricular fibrillation (zebrafish embryos [4]; 500 µM)	Ventricle heartbeat (zebrafish embryos [5])	Beat rate after shorter exposure time (zebrafish embryos [6])	Embryos with spasms (zebrafish embryos [2]) [%]	Fold more potent in inducing bradycardia in the ventricle than in the atria (EC50) (zebrafish embryos [3]) [fold]	Embryos with ventricular fibrillation (AV ratio > 2.5) (zebrafish embryos [4]; 50 µM)
COC(=O)[C@H]1[C@@H](OC(=O)c2ccccc2)C[C@@H]2CC[C@H]1N2C [Cocaine, cocaine]	173	No abnormalities observed	> 500	97.2	50	50	all embryos	no ventricle heartbeat	significantly increased beat rates			
CNC(C)Cc1ccc2c(c1)OCO2 (stereo not shown) [MDMA, 3,4-methylenedioxy-methamphetamine]	180		500	418	250	500						
CCCC(C(=O)c1ccc2c(c1)OCO2)N1CCCC1 (stereo not shown) [MDPV, 3,4-methylenedioxy-pyrovalerone]	135		110	32.7	20	20				21	3.4	more than half of the embryos tested
CNC(C)C(=O)c1ccc(C)cc1 (stereo not shown) [Mephedrone, mephedrone]	147	No abnormalities observed	601	403	250	500						
CNC(C)C(=O)c1ccc2c(c1)OCO2 (stereo not shown) [Methylone, methylone]	127	No abnormalities observed	> 1000	522	250	250						
